Reference: US9738932B2, “Biomarkers for cardiovascular side-effects induced by cox-2 inhibitory compounds” (FIRALIS SAS, priority 2005, dated 2017)
“Also recorded” adds a separate entry of the source.

Assays:
Type in all cases: in vivo, cynomolgus monkey (Macaca fascicularis)
[1] = tested on: INFγ inducible proteins in serum and plasma; assay: Rules-Based Medicine (RBM) human MAP multiplex protein profiling in serum and plasma; conditions: monkey #A60055
From the text: To obtain biomarkers predicting cardiovascular adverse effect of tested compounds/drugs, expression levels of proteins have been analysed in cynomolgus monkey serum and plasma from the present analysis using human Multi-Analyte Profile (MAP) Technology. Human MAP could be used to measure protein levels of more than 80 antigens in monkey serum and plasma (Rules-Based Medicine Inc (RBM®), Austin, Tex. USA).
Soluble proteins present in serum and plasma of the same monkeys have been measured using a multiplex assay produced by Rules-Based Medicine (RBM®) of Texas.

INFγ = assay: ELISA of INFγ protein in monkey serum and plasma; conditions: monkey #A60055
From the text: FIG. 7. ELISA confirmation of INFγ protein level in monkey serum and plasma samples.
(§1) These peripheral biomarkers might allow safe use of cox-2 inhibitory compounds in clinics and selection of cox-2 inhibitory follow-up compounds without cardiovascular toxicity.

CXCL10 (IP10) = assay: ELISA of CXCL10 (IP10) protein in monkey serum and plasma; conditions: monkey #A60055
From the text: FIG. 6. ELISA confirmation of CXCL10 (IP10) protein level in monkey serum samples.
as §1

veins (vascular tissue) = assay: Histopathological evaluation of tissues of treated monkeys; conditions: animal A60055, 50 mg/kg/day oral gavage, two weeks
From the text: Administration of compounds.
Gene expression profiles.

SMILES: CS(=O)(=O)c1ccc(C2=C(c3ccccc3)C(=O)OC2)cc1 [Vioxx®, rofecoxib]
- level of INFγ inducible proteins in serum and plasma (multiplex assay) [1]: increased level
- INFγ protein expression by ELISA (INFγ): Increased expression
- CXCL10 chemokine protein expression by ELISA (CXCL10 (IP10)): Increased expression
- histopathological vascular findings (veins (vascular tissue)): focal vascular necrosis in the veins; also recorded: clear sign of vasculitis in veins
